According to patent US20250051758A1, “FolA Selection Assay to Identify Strains with Increased Soluble Target Protein Expression” (ABSCI CORPORATION, priority 2021, published 2025):

Tested on: E. coli harboring plasmid encoding mCherry-FolA fusion under the control of pBAD promoter

| Compound | Inhibition of growth by sulfamethoxazole | Sulfamethoxazole concentration at which sensitivity to trimethoprim is restored [µg/mL] | Resistance of cells to trimethoprim | Synergy of trimethoprim with sulfamethoxazole |
| --- | --- | --- | --- | --- |
| Cc1cc(NS(=O)(=O)c2ccc(N)cc2)no1 [sulfamethoxazole] | did not inhibit growth | > 2 | – | – |
| COc1cc(Cc2cnc(N)nc2N)cc(OC)c1OC [trimethoprim] | – | – | highly resistant | strong synergy |
